# Laboratory results reported in ChEMBL document CHEMBL1201862, “PubChem BioAssay data set” (2004).
# Active and inactive are the calls of the source.
# How the values were obtained:
# [1] = cytotoxicity toward MDA-MB-231 breast cancer cells – cell-based, CellTiter-Glo luminescence, cherry-pick, cytotoxicity control for RAD54 inhibitor project, dose response (AID 651692); format: functional
# [2] = molecular target: T1, DNA repair and recombination protein RAD54-like (Homo sapiens, UniProt Q92698); assay: RAD54 Holliday junction migration blockers – biochemical, fluorescence, cherry-picked samples, dose series, confirmation (AID 651657); format: functional
# T1 sequence (Q92698 whole entry): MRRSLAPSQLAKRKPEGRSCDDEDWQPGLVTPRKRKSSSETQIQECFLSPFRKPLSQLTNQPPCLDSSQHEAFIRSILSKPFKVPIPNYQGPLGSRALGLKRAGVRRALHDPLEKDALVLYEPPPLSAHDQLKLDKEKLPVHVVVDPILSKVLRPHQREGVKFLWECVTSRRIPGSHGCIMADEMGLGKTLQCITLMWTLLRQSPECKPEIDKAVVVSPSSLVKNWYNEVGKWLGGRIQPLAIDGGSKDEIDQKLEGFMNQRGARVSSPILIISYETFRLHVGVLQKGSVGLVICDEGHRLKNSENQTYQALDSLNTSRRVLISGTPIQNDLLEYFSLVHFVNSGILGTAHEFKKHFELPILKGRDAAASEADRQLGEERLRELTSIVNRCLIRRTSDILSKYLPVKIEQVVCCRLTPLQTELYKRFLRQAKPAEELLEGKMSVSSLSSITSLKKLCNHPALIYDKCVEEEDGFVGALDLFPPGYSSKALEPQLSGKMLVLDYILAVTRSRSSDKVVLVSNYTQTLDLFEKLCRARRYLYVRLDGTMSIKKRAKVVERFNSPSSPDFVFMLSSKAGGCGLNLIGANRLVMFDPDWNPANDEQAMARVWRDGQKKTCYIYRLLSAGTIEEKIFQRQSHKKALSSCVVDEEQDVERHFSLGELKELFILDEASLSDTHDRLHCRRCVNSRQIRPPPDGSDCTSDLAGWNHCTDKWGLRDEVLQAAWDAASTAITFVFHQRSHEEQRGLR
# [3] = molecular target: SWI/SNF-related matrix-associated actin-dependent regulator of chromatin subfamily A member 2 (Homo sapiens, UniProt P51531); assay: Luminescence-based cell-based high throughput dose response assay to identify activators of the function of SWI/SNF related, matrix associated, actin dependent regulator of chromatin, subfamily a, member 2 (SMARCA2, BRM).; format: functional
# [4] = Counterscreen for activators of the function of SWI/SNF related, matrix associated, actin dependent regulator of chromatin, subfamily a, member 2 (SMARCA2, BRM): Luminescence-based cell-based high throughput dose response assay to identify non-selective compounds using the VP16 reporter assay.; format: functional
# [5] = molecular target: T2, DNA repair protein RAD52 homolog (Homo sapiens, UniProt P43351); format: functional, biochemical
# T2 sequence (P43351 whole entry): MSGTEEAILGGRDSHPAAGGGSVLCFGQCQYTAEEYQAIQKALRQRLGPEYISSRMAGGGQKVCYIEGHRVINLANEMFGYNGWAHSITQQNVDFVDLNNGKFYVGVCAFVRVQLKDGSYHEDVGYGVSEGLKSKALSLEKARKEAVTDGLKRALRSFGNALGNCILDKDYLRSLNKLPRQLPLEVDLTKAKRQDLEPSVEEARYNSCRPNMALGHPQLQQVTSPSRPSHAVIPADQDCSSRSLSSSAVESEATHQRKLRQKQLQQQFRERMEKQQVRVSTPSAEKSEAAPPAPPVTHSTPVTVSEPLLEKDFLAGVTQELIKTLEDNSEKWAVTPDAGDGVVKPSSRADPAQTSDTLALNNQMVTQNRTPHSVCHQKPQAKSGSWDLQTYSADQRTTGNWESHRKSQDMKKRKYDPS
# [6] = Trypanosoma cruzi growth suppression in host cells – NIH3T3 host cells, beta-gal luminescence, confirmation (AID 2044); format: functional, cell-based;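 also: intracellular parasites grown in NIH/3T3 mouse fibroblasts as host cells; luminescent beta-galactosidase reporter signal from transgenic T. cruzi replicating inside host cells; inhibitors lower the luminescence signal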
# [7] = NIH3T3 cell viability loss – ATP luminescence, mouse fibroblasts, counter-screen, dose response (AID 2010); format: functional, cell-based;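 also: cells exposed to compound for about 90 hours before reading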
# [8] = THP-1 cell cytotoxicity, dose response, cytotoxicity control for non-replicating M. tuberculosis project (AID 489025); format: functional
# [9] = HepG2 cell cytotoxicity, dose response, cytotoxicity control for non-replicating M. tuberculosis project (AID 489018); format: functional; conditions: Mycobacterium tuberculosis
# [10] = Vero E6 cell cytotoxicity, dose response, cytotoxicity control for non-replicating M. tuberculosis project, secondary assay (AID 492998); format: functional, VeroE6; conditions: Vero C1008
# [11] = cells; format: functional
# [12] = molecular target: T3, Sentrin-specific protease 8 (Homo sapiens, UniProt Q96LD8); format: functional
# T3 sequence (Q96LD8 whole entry): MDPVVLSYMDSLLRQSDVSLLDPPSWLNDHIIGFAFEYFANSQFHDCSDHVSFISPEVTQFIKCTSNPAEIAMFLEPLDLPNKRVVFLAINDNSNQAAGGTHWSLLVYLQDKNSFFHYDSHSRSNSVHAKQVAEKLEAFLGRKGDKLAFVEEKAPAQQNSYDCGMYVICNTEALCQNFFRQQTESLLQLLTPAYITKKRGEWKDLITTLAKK
# [13] = molecular target: T3, Sentrin-specific protease 8; format: functional; remark: listed apart in the source
# [14] = molecular target: T4, RNA-binding protein pos-1 (Caenorhabditis elegans, UniProt G5EF15); assay: disruptors of C. elegans POS-1 RNA interaction – biochemical, fluorescence polarization, dose response (AID 1964);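 also: purified POS-1 fused to maltose binding protein made in E. coli; potency of compounds blocking POS-1 binding to fluorescent RNA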
# T4 sequence (G5EF15 whole entry): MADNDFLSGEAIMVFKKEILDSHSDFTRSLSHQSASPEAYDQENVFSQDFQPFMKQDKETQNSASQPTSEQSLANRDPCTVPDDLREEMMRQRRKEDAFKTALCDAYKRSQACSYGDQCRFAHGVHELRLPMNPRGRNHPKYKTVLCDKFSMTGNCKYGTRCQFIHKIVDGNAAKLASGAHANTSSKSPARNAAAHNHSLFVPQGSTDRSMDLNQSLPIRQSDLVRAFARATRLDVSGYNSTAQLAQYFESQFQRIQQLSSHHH
# [15] = molecular target: T5, Zinc finger protein mex-5 (Caenorhabditis elegans, UniProt Q9XUB2); assay: potency of MEX-5 RNA-binding blockers – biochemical, C. elegans, fluorescence polarization, dose response (AID 1960)
# T5 sequence (Q9XUB2 whole entry): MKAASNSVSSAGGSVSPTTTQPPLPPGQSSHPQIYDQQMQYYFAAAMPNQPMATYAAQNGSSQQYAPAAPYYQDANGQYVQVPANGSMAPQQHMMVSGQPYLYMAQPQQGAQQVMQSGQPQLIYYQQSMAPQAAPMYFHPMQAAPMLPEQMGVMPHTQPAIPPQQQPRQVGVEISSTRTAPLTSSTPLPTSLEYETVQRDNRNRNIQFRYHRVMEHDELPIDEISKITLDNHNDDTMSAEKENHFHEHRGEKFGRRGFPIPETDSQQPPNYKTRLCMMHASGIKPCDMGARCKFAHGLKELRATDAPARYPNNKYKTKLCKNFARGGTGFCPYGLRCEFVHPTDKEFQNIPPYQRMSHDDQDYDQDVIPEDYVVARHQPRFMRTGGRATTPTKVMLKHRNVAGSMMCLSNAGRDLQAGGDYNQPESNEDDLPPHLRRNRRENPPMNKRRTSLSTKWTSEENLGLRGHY
# [16] = molecular target: T6, Low molecular weight phosphotyrosine protein phosphatase (Homo sapiens, UniProt P24666); format: functional; conditions: read-out: IC50_Mean
# [17] = molecular target: T6, Low molecular weight phosphotyrosine protein phosphatase; format: functional; conditions: read-out: IC50_Mean; remark: listed apart in the source
# T6 sequence (P24666 whole entry): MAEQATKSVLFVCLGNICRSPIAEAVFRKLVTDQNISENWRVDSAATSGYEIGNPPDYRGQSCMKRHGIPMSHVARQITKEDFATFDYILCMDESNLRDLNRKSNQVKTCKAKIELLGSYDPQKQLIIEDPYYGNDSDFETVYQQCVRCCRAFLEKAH
# Sequence of SWI/SNF-related matrix-associated actin-dependent regulator of chromatin subfamily A member 2 (P51531 whole entry): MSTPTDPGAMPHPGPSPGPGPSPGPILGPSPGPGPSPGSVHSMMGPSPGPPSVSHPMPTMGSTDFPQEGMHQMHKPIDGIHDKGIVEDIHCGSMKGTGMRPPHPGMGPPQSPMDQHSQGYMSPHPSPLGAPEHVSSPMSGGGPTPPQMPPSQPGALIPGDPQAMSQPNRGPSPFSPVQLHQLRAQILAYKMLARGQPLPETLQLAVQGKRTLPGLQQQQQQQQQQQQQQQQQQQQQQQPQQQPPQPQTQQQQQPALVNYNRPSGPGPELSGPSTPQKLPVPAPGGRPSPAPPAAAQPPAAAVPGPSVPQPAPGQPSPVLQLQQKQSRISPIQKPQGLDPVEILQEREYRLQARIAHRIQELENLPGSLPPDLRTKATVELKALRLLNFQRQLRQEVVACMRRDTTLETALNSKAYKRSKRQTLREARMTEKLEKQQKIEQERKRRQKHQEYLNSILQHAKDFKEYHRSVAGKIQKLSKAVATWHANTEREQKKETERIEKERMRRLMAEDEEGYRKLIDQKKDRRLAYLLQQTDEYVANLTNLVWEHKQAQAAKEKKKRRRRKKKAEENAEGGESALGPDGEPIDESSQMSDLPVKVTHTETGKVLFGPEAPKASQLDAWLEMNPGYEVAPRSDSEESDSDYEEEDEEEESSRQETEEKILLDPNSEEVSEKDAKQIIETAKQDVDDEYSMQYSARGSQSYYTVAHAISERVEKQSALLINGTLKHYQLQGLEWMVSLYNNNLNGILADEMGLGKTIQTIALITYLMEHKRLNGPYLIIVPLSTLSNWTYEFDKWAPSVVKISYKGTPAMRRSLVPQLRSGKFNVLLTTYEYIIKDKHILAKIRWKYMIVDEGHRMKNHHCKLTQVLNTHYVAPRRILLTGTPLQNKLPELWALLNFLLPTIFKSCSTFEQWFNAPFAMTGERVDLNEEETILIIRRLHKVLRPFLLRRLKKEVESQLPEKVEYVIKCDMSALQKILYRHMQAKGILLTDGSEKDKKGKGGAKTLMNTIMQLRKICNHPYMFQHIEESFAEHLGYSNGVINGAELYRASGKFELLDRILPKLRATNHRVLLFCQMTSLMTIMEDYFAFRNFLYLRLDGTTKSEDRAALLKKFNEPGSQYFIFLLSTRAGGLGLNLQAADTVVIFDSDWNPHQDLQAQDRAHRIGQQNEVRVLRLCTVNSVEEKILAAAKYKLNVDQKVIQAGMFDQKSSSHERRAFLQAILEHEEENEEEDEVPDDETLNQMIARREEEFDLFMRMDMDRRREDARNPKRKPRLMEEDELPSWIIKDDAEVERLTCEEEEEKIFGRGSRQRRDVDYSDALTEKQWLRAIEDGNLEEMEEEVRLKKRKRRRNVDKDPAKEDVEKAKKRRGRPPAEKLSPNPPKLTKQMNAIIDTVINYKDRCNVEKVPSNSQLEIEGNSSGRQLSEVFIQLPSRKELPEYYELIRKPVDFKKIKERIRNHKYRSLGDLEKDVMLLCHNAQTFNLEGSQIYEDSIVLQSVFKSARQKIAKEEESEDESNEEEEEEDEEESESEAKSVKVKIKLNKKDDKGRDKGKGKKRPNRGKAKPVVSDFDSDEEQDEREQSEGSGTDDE
structure (smiles),measurement,setting,value
COc1cc(Nc2c3ccccc3nc3ccccc23)cc(OC)c1OC,AC50,[1],29.2 µM (active)
same,AC50,[2],14.8 µM (active)
same,EC50,[3],> 91.2 µM (inactive)
same,EC50,[4],> 91.2 µM (inactive)
same,AC50,[5],5.17 µM (active)
Cc1ccccc1NCC(=O)N/N=C\c1ccc([N+](=O)[O-])s1,EC50,[6],0.506 µM (active)
same,EC50,[7],> 60 µM (not active)
same,CC50,[8],18.8 µM (active)
same,CC50,[9],16 µM (active)
same,CC50,[10],13.8 µM (active)
same,IC50,[11],5.71 µM (active)
same,IC50,[12],46.7 µM (active)
same,IC50,[13],90.4 µM (inactive)
N#CC1=C(N)OC2=C(C(=O)CC(c3ccco3)C2)C1c1ccc(OCc2c(F)cccc2Cl)cc1 (configuration not stated),EC50,[14],> 300 µM (not active)
same,EC50,[15],> 300 µM (not active)
same,IC50,[16],> 80 µM (inactive)
same,IC50,[17],35.1 µM (inactive)
